Entries after “also recorded” stand apart in the source; their conditions may differ. Positions of bridges follow the written chain, without caps; N, C: chain ends. Non-standard residues stand in square brackets, D forms with d. Residues, ends and D or L forms follow the SMILES beside them. Trp(6-Br) = N[C@@H](Cc1c[nH]c2cc(Br)ccc12)C(=O)O; Hyp = O=C(O)[C@@H]1C[C@@H](O)CN1
How the values were obtained:
mice [1] = conditions: mouse, in vivo
serotonin 5HT3 receptor = target: T1, serotonin 5HT3 receptor (Homo sapiens, UniProt P46098)
T1 sequence (P46098 24-478): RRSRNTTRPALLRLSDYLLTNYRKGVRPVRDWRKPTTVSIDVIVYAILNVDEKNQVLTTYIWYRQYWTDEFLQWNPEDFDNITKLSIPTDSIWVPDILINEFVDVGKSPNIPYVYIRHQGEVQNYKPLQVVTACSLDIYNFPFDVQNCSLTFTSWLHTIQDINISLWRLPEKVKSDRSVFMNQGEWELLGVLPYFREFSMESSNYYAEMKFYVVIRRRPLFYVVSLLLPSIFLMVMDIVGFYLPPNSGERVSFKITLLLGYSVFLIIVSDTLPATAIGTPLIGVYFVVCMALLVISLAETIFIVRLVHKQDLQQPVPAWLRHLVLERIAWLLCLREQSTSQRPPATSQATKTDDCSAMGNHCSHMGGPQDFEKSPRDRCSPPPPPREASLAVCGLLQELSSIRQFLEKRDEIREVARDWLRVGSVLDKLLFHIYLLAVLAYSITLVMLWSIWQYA

[2] = system: Frings audiogenic seizure susceptible mice; conditions: mouse, in vivo
CF No. 1 mice = conditions: mouse, in vivo, sc
mice [3] = conditions: mouse

## NCC(=O)N[C@H]1CSSC[C@@H](C(N)=O)NC(=O)[C@H](Cc2c[nH]c3cc(Br)ccc23)NC(=O)[C@@H]2CCCN2C(=O)[C@H](CCC(=O)O)NC(=O)[C@@H](Cc2c[nH]c3ccccc23)NC(=O)[C@@H]2C[C@@H](O)CN2C1=O [bromocontryphan, GCX1 X2 EPX5 C--NH2, X1 is Hyp, X2 is D-Trp and X5 is 6-bromo-L-Trp] (H-GC[Hyp][dW]EP[Trp(6-Br)]C-NH2; disulfide 2-8)
Mice [1]
  biological activity in mammalian systems, compared with contryphan R and des[Gly1]contryphan R: very similar to the spectrum of activity previously observed for both contryphan R and des[Gly^1 ]contryphan R

## Gly-Cys-Thr-Arg-Thr-Cys-Gly-Gly-Xaa1 -Lys-Cys-Thr-Gly-Thr-Cys-Thr-Cys-Thr-Asn-Ser-Ser-Lys-Cys-Gly-Cys-Arg-Tyr-Asn-Val-His-Pro-Ser-Gly-Xaa2 -Gly-Cys-Gly-Cys-Ala-Cys-Ser, where Xaa1 is Hyp and Xaa2 is 6-bromo-L-tryptophan [sigma conotoxin]
Serotonin 5HT3 receptor
  receptor targeted: targets the serotonin 5HT3 receptor

## Xaa1 -Ala-Thr-Ile-Asp-Xaa2 -Cys-Xaa2-Xaa2 -Thr-Cys-Asn-Val-Thr-Phe-Lys-Thr-Cys-Cys-Gly-Xaa3-Xaa3-Gly-Asp-Trp-Gln-Cys-Val-Xaa2-Ala-Cys-Pro-Val-OH, where Xaa3 =hydroxyproline, Xaa2 =Gla and Xaa1 =bromotryptophan [Bromosleeper Peptide]
[2]
  anticonvulsant activity: seen to have activity in this model
CF No. 1 mice
  anticonvulsant activity: found to have anticonvulsant activity
Mice [3]
  in vivo effect in very young (<2 weeks old) and older (>3 weeks old) mice: induced sleep in mice of both age groups
Mice [3]; in vivo
  Observed Effects in Mice: lethargic/drowsy after (onset time): ≈ 15 min; also recorded: ≈ 19 min; also recorded: ≈ 11 min
  dependence of potency on the age of the mice: more potent in 9-day-old mice than in the older mice
